Test results published in paper PMC10675340, “Preparation, Radiolabeling with ^68Ga/^177Lu and Preclinical Evaluation of Novel Angiotensin Peptide Analog: A New Class of Peptides for Breast Cancer Targeting” (Pharmaceuticals, 2023).
Read-outs that look alike come from different tables or passages of the source. Where a SMILES comes first, the peptide text is derived from it. [ ]: non-standard residue; d: D form. The star is where a group is joined. DOTA = O=C(O)CN1CCN(CC(=O)O)CCN(CC(=O)*)CCN(CC(=O)O)CC1; βAla = NCCC(=O)O

Assays:
[1] = In vivo biodistribution in normal Balb/c mice; design: species or system mouse; conditions: female, mouse, iv, total radioactivity, normal Balb/c mice, i.v. tail vein, mean ± SD, n = 4-6
Description: (§1) The in vivo biodistribution of ^68Ga-labeled AngII peptide analog was carried out in female Balb/c mice, at various time points, to observe the uptake in the normal tissues and organs and find the excretion route of the radiolabeled peptides. […] Low uptake and retention of the radiopeptide in the liver varying from 1.54 ± 0.28% ID/g at 45 min to 0.48 ± 0.17% ID/g at 2 h p.i. is probably related to the high hydrophilicity (log p = −0.55 ± 0.11) of the ^68Ga-labeled AngII peptide analog. […] The efficient clearance from the kidneys is possibly associated with the urinary excretion of the radiopeptide. […] The low amount of uptake in the bone (up to 0.37 ± 0.14% ID/g) (Table 2) indicates the minimal breakdown of the ^68Ga-labeled AngII peptide complex in vivo combined with the minor release of free ^68Ga. These findings are in agreement with the high in vitro metabolic stability observed in the human plasma for the radiolabeled AngII peptide. The accumulation in the extremely vascular organ lungs was also low (up to 1.11 ± 0.37% ID/g) signifying a low trapping by the lungs.
(§2) Approval from the Institutional Animal Care and Use Committee was obtained for the animal protocol used. Additionally, strict international regulations govern the safe and proper use of laboratory animals employed during animal experiments. In vivo, biodistribution was performed on healthy female mice according to the methods essentially described previously. In summary, Balb/c mice (n = 5 per time point, body mass 20–25 g) at 45 min and 2 h were administered with the HPLC-purified AngII peptide (~1 µg, 100 µL, 0.925–1.85 MBq; 25–50 µCi) via lateral tail vein injection. At the specified time points, the animals were sacrificed by cervical dislocation. A fraction of the blood was collected from cardiac puncture. Urine was also collected and measured with the bladder contents. Major organs, such as the lungs, pancreas, stomach, liver, heart, kidneys, and intestines were isolated, weighed, and measured for radioactivity. The uptake values of the radiolabeled peptide in different organs are expressed as the percent injected dose per gram (% ID/g) of tissue/organ. The radioactivity in the urine with bladder contents is shown as the percent of the injected dose per organ (% ID/organ). To calculate the injected dose, a standard (20-fold dilution of injected dose) was prepared and counted together with animal tissue samples.

Balb/c mice = test: In vivo biodistribution in normal Balb/c mice; design: species or system mouse; conditions: normal Balb/c mice, 45 min and 2 h p.i.
Description: as §1, §2

tissue uptake at 0.75 h ([1]; blood, 45 min p.i., read-out: Blood uptake): 0.85 ± 0.24 %ID/g
tissue uptake at 2 h ([1]; blood, 2 h p.i., read-out: Blood uptake): 0.61 ± 0.15 %ID/g
tissue uptake at 0.75 h ([1]; heart, 45 min p.i., read-out: Heart uptake): 1.39 ± 0.51 %ID/g
tissue uptake at 2 h ([1]; heart, 2 h p.i., read-out: Heart uptake): 0.99 ± 0.26 %ID/g
tissue uptake at 0.75 h ([1]; intestines without contents, 45 min p.i., read-out: Intestines uptake (portion without contents)): 1.45 ± 0.39 %ID/g
tissue uptake at 2 h ([1]; intestines without contents, 2 h p.i., read-out: Intestines uptake (portion without contents)): 1 ± 0.28 %ID/g
tissue uptake at 0.75 h ([1]; kidneys, 45 min p.i., read-out: Kidneys uptake): 9.95 ± 3.39 %ID/g
tissue uptake at 2 h ([1]; kidneys, 2 h p.i., read-out: Kidneys uptake): 3.78 ± 1.46 %ID/g
tissue uptake at 0.75 h ([1]; liver, 45 min p.i., read-out: Liver uptake): 1.54 ± 0.28 %ID/g
tissue uptake at 2 h ([1]; liver, 2 h p.i., read-out: Liver uptake): 0.48 ± 0.17 %ID/g
tissue uptake at 0.75 h ([1]; lungs, 45 min p.i., read-out: Lungs uptake): 1.11 ± 0.37 %ID/g
tissue uptake at 2 h ([1]; lungs, 2 h p.i., read-out: Lungs uptake): 0.6 ± 0.2 %ID/g
tissue uptake at 2 h ([1]; muscle/bone, 2 h p.i., read-out: Muscle/bone uptake): 0.28 ± 0.1 %ID/g
tissue uptake at 0.75 h ([1]; pancreas, 45 min p.i., read-out: Pancreas uptake): 0.5 ± 0.11 %ID/g
tissue uptake at 2 h ([1]; pancreas, 2 h p.i., read-out: Pancreas uptake): 0.33 ± 0.06 %ID/g
tissue uptake at 0.75 h ([1]; spleen, 45 min p.i., read-out: Spleen uptake): 0.51 ± 0.1 %ID/g
tissue uptake at 2 h ([1]; spleen, 2 h p.i., read-out: Spleen uptake): 0.31 ± 0.09 %ID/g
tissue uptake at 0.75 h ([1]; stomach, 45 min p.i., read-out: Stomach uptake): 1.06 ± 0.41 %ID/g
tissue uptake at 2 h ([1]; stomach, 2 h p.i., read-out: Stomach uptake): 0.81 ± 0.23 %ID/g
dose excreted at 0.75 h ([1]; urine with bladder contents, 45 min p.i., read-out: Urine + Bladder (urinary excretion)): 67 ± 8.9%
dose excreted at 2 h ([1]; urine with bladder contents, 2 h p.i., read-out: Urine + Bladder (urinary excretion)): 80 ± 12.9%
Radioactivity in the whole intestines (with contents) (Balb/c mice): up to 2.97 % ID/g
Structure (SMILES): CC[C@H](C)[C@H](NC(=O)[C@H](Cc1ccc(O)cc1)NC(=O)[C@@H](NC(=O)[C@H](CCCNC(=N)N)NC(=O)[C@H](CC(=O)O)NC(=O)CCNC(=O)[C@H](CCCCN)NC(=O)CN1CCN(CC(=O)O)CCN(CC(=O)O)CCN(CC(=O)O)CC1)C(C)C)C(=O)N[C@@H](Cc1c[nH]cn1)C(=O)N1CCC[C@H]1C(=O)N[C@@H](Cc1ccccc1)C(=O)N[C@@H](Cc1c[nH]c2ccccc12)C(=O)N[C@@H](CCCCN)C(=O)N[C@@H](Cc1ccc(O)cc1)C(N)=O [^68Ga-DOTA-AngII peptide, metal not drawn] ({DOTA}-K[βAla]DRVYIHPFWKY-NH2)
